Consider two compounds from BindingDB's records for patent US20240352053 (Betta Pharmaceuticals, 2024).

The structures appear in SMILES notation.

Common to all, as to assay: Kinase Inhibition Assay
Assay [1] has as its target T1, Epidermal growth factor receptor [1-18,20-1210,T790M,C797S] (Human, UniProt P00533, T790M/C797S).
T1 construct: 1-18,20-1210
As to the method:
(§1) Mobility shift assays were performed to determine the compound's inhibitory activity against EGFR delta19del/T790M/C797S, EGFR WT, and IGF1R kinases. The enzyme reaction scheme is as follows: 1. Prepare 1*kinase buffer as follows. Final 1* Kinase buffer concentration HEPES PH 7.5 (mM) 50 Brij-35 0.0150% DTT (mM) 2 Mgcl2, Mncl2 (mM) 10 2. Preparation of compound concentration gradient: The starting concentration of the test compound is 3000 nM or 100 nM, dilute it in the 384-source plate to a 100% DMSO solution of 100 times the final concentration, and use precision to dilute the compound 3 times to 10 concentrations. Use the Dispenser Echo 550 to transfer 250 nL of 100x the final concentration of compound to the destination plate OptiPlate-384F. 3. Prepare a kinase solution with 2.5 times the final concentration using 1x Kinase buffer. 4. Add 10 uL of 2.5 times the final concentration of kinase solution to the compound wells and positive control wells respectively; add 10 uL of 1x Kinase buffer to the negative control wells. 5. Centrifuge at 1000 rpm for 30 seconds, shake and mix the reaction plate and incubate at room temperature for 10 minutes. 6. Use 1x Kinase buffer to prepare a mixed solution of ATP and Kinase substrate at 5/3 times the final concentration. 7. Add 15 uL of a mixed solution of ATP and substrate at 5/3 times the final concentration to start the reaction. 8. Centrifuge the 384-well plate at 1000 rpm for 30 seconds, mix well by shaking, and incubate at room temperature for the corresponding time. 9. Add 30 uL of stop detection solution to stop the kinase reaction, centrifuge at 1000 rpm for 30 seconds, and shake to mix. 10. Use Caliper EZ Reader to read conversion rates. 11. Calculation formula

The target in assay [2] is Insulin-like growth factor 1 receptor (Homo sapiens, UniProt P08069). As to the method:
as §1

Assay [3] concerns the target Epidermal growth factor receptor (Homo sapiens, UniProt P00533). How it is done:
as §1

As a reminder, the IC50 is the concentration needed to halve the response being measured. Low values mean greater potency in that assay, high ones weaker potency in that assay.

Insulin-like growth factor 1 receptor, sequence (P08069 31-736 limits assumed): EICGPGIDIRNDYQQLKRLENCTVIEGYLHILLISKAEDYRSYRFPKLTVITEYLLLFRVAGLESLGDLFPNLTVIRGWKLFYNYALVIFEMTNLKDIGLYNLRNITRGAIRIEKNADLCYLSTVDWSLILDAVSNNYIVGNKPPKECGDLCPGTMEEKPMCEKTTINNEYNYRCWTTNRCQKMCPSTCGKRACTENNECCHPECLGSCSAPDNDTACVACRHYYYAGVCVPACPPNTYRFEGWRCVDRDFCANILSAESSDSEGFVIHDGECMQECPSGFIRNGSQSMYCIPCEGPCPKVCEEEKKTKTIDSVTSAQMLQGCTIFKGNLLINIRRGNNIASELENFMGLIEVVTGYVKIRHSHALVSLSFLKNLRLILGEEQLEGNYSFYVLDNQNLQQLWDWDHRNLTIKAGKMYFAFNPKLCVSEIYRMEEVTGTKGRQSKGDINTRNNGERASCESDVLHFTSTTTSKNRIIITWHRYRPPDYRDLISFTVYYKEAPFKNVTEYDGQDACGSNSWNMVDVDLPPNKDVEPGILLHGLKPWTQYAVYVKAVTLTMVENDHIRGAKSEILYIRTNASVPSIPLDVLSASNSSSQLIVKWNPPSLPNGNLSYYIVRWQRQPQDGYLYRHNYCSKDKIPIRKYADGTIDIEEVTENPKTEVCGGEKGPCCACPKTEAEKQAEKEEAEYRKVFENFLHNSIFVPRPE
Insulin-like growth factor 1 receptor, sequence (P08069 741-1367 limits assumed): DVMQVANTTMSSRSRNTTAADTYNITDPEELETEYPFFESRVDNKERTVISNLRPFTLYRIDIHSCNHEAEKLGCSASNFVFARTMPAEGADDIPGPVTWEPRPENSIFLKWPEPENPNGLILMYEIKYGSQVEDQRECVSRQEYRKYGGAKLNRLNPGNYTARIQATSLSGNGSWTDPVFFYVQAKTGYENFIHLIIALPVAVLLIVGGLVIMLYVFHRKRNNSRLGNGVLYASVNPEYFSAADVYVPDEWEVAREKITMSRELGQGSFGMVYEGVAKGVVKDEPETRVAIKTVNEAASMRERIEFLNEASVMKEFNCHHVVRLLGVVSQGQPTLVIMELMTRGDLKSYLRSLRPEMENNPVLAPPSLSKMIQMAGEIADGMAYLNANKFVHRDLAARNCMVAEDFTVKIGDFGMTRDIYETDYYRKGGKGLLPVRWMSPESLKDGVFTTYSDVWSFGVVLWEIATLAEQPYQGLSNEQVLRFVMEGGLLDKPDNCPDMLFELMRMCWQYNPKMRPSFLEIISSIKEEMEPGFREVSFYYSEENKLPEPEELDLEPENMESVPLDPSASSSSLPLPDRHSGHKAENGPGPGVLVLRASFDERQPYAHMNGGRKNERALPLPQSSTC
Epidermal growth factor receptor, sequence (P00533 whole entry): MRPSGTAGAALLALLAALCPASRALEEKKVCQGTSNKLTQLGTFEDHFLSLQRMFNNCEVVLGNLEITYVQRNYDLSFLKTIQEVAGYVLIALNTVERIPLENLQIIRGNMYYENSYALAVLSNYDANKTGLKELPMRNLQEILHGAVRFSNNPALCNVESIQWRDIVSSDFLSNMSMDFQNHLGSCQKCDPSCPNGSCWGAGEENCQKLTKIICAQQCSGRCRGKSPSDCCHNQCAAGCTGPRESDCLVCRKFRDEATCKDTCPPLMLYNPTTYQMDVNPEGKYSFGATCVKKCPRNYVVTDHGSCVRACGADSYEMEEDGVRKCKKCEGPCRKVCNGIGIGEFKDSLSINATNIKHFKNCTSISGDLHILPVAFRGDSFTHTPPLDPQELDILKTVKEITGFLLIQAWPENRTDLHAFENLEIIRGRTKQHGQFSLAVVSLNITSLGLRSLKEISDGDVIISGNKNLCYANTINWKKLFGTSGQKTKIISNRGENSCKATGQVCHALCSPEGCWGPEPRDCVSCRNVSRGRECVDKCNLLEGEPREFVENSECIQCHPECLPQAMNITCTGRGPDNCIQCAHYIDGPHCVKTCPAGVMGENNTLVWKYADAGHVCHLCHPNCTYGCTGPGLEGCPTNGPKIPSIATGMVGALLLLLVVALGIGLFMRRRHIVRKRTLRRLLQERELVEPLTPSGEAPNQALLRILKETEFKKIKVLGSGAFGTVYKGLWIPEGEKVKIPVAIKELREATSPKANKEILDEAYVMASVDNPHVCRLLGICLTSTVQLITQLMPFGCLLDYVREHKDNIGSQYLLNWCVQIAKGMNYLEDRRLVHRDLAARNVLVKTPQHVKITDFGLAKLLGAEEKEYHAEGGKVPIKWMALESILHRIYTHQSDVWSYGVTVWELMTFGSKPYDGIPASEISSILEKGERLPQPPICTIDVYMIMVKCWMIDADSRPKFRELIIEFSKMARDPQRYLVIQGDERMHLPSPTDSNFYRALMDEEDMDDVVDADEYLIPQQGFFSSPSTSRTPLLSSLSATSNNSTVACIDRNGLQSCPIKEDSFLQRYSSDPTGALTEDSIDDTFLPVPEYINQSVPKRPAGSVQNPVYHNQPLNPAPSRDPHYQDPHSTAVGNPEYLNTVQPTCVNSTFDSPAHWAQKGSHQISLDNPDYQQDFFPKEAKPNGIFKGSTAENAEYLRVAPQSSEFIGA

As to `COc1cc(N2CCC(N3CCN(C)CC3)CC2)c(C)cc1Nc1ncc(Br)c(Nc2ccc3nc(C4CC4)ccc3c2P(C)(C)=O)n1` [US20240352053, Compound Formula I], the IC50 in assay [1] was 0.3 nM.

As to `CCc1cc(Nc2ncc(Br)c(Nc3ccc4ncccc4c3P(C)(C)=O)n2)c(OC)cc1N1CCC(N2CCN(C)CC2)CC1` [US20240352053, Compound Control Example 1], the IC50 in assay [1] was found to be 0.2 nM; in assay [2], 9.5 nM; in assay [3] it was 5.1 nM.
